Values of other authors, collected in PMC9516332 (Frontiers in Oncology, 2022).

Tests used:
[1] = molecular target: panel of 255 wild-type kinases (Homo sapiens, UniProt O94804); settings: kinase LOK; 1 µmol/L single concentration; ref DOI: 10.1371/journal.pone.0092146; cited from earlier work
[2] = molecular target: panel of 255 wild-type kinases (Homo sapiens, UniProt O96013); settings: PAK4; 1 µmol/L single concentration; ref DOI: 10.1371/journal.pone.0092146; cited from earlier work
[3] = molecular target: panel of 255 wild-type kinases (Homo sapiens, UniProt P00533); settings: kinase EGFR; 1 µmol/L single concentration; ref DOI: 10.1371/journal.pone.0092146; cited from earlier work
[4] = molecular target: panel of 255 wild-type kinases (Homo sapiens, UniProt P04629); settings: kinase TRKA; 1 µmol/L single concentration; ref DOI: 10.1371/journal.pone.0092146; cited from earlier work
[5] = molecular target: panel of 255 wild-type kinases (Homo sapiens, UniProt P06239); settings: kinase LCK; 1 µmol/L single concentration; ref DOI: 10.1371/journal.pone.0092146; cited from earlier work
[6] = molecular target: panel of 255 wild-type kinases (Homo sapiens, UniProt P11802); settings: CDK4/CycD3 kinase assay; 1 µmol/L single concentration; ref DOI: 10.1371/journal.pone.0092146; cited from earlier work
[7] = molecular target: panel of 255 wild-type kinases (Homo sapiens, UniProt P14616); settings: kinase IRR; 1 µmol/L single concentration; ref DOI: 10.1371/journal.pone.0092146; cited from earlier work
[8] = molecular target: panel of 255 wild-type kinases (Homo sapiens, UniProt P16234); settings: kinase PDGFRα; 1 µmol/L single concentration; ref DOI: 10.1371/journal.pone.0092146; cited from earlier work
[9] = molecular target: panel of 255 wild-type kinases (Homo sapiens, UniProt P22455); settings: kinase FGFR4; 1 µmol/L single concentration; ref DOI: 10.1371/journal.pone.0092146; cited from earlier work
[10] = molecular target: panel of 255 wild-type kinases (Homo sapiens, UniProt P43405); settings: kinase SYK; 1 µmol/L single concentration; ref DOI: 10.1371/journal.pone.0092146; cited from earlier work
[11] = molecular target: panel of 255 wild-type kinases (Homo sapiens, UniProt P49759); settings: kinase CLK1; 1 µmol/L single concentration; ref DOI: 10.1371/journal.pone.0092146; cited from earlier work
[12] = molecular target: panel of 255 wild-type kinases (Homo sapiens, UniProt P50750); settings: CDK9/CycT1 kinase assay; 1 µmol/L single concentration; ref DOI: 10.1371/journal.pone.0092146; cited from earlier work
[13] = molecular target: panel of 255 wild-type kinases (Homo sapiens, UniProt P78362); settings: kinase SRPK2; 1 µmol/L single concentration; ref DOI: 10.1371/journal.pone.0092146; cited from earlier work
[14] = molecular target: panel of 255 wild-type kinases (Homo sapiens, UniProt Q04759); settings: kinase PKCθ; 1 µmol/L single concentration; ref DOI: 10.1371/journal.pone.0092146; cited from earlier work
[15] = molecular target: panel of 255 wild-type kinases (Homo sapiens, UniProt Q13555); settings: CaMK2γ kinase assay; 1 µmol/L single concentration; ref DOI: 10.1371/journal.pone.0092146; cited from earlier work
[16] = molecular target: panel of 255 wild-type kinases (Homo sapiens, UniProt Q14680); settings: MELK; 1 µmol/L single concentration; ref DOI: 10.1371/journal.pone.0092146; cited from earlier work
[17] = molecular target: panel of 255 wild-type kinases (Homo sapiens, UniProt Q9H4B4); settings: kinase PLK3; 1 µmol/L single concentration; ref DOI: 10.1371/journal.pone.0092146; cited from earlier work
[18] = molecular target: panel of 255 wild-type kinases (Homo sapiens, UniProt Q9NYA1); settings: kinase SPHK1; 1 µmol/L single concentration; ref DOI: 10.1371/journal.pone.0092146; cited from earlier work
[19] = molecular target: panel of 255 wild-type kinases (Homo sapiens, UniProt Q9P286); settings: PAK5; 1 µmol/L single concentration; ref DOI: 10.1371/journal.pone.0092146; cited from earlier work

CC(=O)Nc1cccc(-n2c(=O)n(C3CC3)c(=O)c3c(Nc4ccc(I)cc4F)n(C)c(=O)c(C)c32)c1 [trametinib]
%-inhibition at 1 µmol/L, LOK [1]: 12%
%-inhibition, PAK4 [2]: -0.675%
%-inhibition at 1 µmol/L, EGFR [3]: -0.0959%
%-inhibition at 1 µmol/L, TRKA [4]: -1.17%
%-inhibition at 1 µmol/L, LCK [5]: -7%
%-inhibition CDK4/CycD3 [6]: 5.62%
%-inhibition at 1 µmol/L, IRR [7]: 1.35%
%-inhibition at 1 µmol/L, PDGFRα [8]: 4.53%
%-inhibition at 1 µmol/L, FGFR4 [9]: -3%
%-inhibition at 1 µmol/L, SYK [10]: -5%
%-inhibition at 1 µmol/L, CLK1 [11]: -0.618%
%-inhibition CDK9/CycT1 [12]: -2.31%
%-inhibition at 1 µmol/L, SRPK2 [13]: -0.868%
%-inhibition at 1 µmol/L, PKCθ [14]: 0.388%
%-inhibition CaMK2γ [15]: 7%
%-inhibition, MELK [16]: -0.588%
%-inhibition at 1 µmol/L, PLK3 [17]: -6.59%
%-inhibition at 1 µmol/L, SPHK1 [18]: -11%
%-inhibition, PAK5 [19]: -2.62%
